According to article PMC6282425 (Pharmaceutical Biology, 2018):

Assays:
[1] = biological target: CYP1A2 (Homo sapiens, UniProt P05177); assay: CYP1A2 inhibition in human liver microsomes (phenacetin O-deethylation); format: in vitro ADME; conditions: 100 μM bergenin, pooled HLMs
Experimental: (§1) All incubations were performed in triplicate, and the mean values were utilized.
(§2) There was a 3 min pre-incubation period (at 37 °C) before the reaction was initiated by adding an NADPH-generating system. The reaction was terminated by adding a 100 μL acetonitrile (10% trichloroacetic acid for CYP2A6) internal standard mix, and the solution was placed on ice. The mixture was centrifuged at 12,000 rpm for 10 min, and an aliquot (50 μL) of the supernatant was transferred for HPLC analysis. The instrument used in this study were Agilent 1260 series instrument (Palo Alto, CA, USA) with DAD and FLD detector, and the quantitative assay for the corresponding metabolites was performed as previously reported (Lang et al. [2017]; Zhang et al. [2017]).

[2] = biological target: T1, CYP3A4 (Homo sapiens, UniProt P08684); assay: CYP3A4 inhibition in human liver microsomes (testosterone 6β-hydroxylation); format: in vitro ADME
T1 sequence (P08684 whole entry): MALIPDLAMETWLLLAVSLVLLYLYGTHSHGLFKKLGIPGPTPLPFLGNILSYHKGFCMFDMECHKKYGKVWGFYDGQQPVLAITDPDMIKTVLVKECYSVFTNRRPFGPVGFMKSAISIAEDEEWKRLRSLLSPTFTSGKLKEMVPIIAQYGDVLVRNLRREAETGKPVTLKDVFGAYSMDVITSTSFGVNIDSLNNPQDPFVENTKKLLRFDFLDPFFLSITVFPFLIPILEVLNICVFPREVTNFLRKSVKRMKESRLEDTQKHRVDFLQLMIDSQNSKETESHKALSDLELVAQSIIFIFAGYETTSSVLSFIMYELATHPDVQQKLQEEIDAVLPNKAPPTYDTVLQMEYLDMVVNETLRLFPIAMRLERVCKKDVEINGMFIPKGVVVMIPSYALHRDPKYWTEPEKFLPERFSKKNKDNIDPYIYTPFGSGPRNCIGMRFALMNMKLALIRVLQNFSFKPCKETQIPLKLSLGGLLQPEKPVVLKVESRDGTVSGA
Experimental: as §1, §2
The enzyme kinetic parameters for the probe reaction were estimated from the best fit line using least-squares linear regression of the inverse substrate concentration versus the inverse velocity (Lineweaver–Burk plots), and the mean values were used to calculate Vmax and Km. […]

[3] = biological target: T2, CYP2A6 (Homo sapiens, UniProt P11509); assay: CYP2A6 inhibition in human liver microsomes (coumarin 7-hydroxylation); format: in vitro ADME; conditions: 100 μM bergenin, pooled HLMs
T2 construct: from tissue; host or cells: pooled human liver microsomes
T2 sequence (P11509 1-494): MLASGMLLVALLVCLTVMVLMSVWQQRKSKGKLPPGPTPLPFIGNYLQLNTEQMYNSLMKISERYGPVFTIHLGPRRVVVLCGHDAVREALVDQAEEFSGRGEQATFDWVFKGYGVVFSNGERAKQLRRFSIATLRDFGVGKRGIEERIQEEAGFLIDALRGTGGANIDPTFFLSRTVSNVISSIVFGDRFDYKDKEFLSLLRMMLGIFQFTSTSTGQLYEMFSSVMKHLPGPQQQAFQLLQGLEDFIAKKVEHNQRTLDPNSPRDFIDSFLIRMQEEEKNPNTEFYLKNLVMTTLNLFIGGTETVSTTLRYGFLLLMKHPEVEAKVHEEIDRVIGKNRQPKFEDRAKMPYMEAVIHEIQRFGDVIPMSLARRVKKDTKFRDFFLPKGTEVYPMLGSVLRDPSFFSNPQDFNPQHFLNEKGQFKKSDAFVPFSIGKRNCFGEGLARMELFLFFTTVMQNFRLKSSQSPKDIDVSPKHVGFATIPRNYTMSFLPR
Experimental: as §1, §2

[4] = biological target: T3, CYP2E1 (Homo sapiens, UniProt P05181); assay: CYP2E1 inhibition in human liver microsomes (chlorzoxazone 6-hydroxylation); format: in vitro ADME
T3 construct: CYP2E1 catalyzed reactions (chlorzoxazone 6-hydroxylation) in pooled HLM; from tissue; host or cells: pooled human liver microsomes
T3 sequence (P05181 whole entry): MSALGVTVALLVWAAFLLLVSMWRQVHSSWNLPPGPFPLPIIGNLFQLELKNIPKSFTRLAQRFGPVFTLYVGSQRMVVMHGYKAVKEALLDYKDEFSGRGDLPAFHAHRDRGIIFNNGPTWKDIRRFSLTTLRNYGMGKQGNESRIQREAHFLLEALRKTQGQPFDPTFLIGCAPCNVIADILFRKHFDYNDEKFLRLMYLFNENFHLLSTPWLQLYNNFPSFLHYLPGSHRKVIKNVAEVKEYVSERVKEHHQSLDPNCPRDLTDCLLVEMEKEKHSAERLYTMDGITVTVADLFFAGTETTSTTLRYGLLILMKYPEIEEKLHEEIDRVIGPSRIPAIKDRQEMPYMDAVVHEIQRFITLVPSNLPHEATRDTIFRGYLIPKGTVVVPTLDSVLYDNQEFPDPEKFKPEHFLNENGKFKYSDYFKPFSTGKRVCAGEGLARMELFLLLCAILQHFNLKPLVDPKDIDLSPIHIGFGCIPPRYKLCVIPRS
Experimental: as §1, §2
(§3) The enzyme kinetic parameters for the probe reaction were estimated from the best fit line using least-squares linear regression of the inverse substrate concentration versus the inverse velocity (Lineweaver–Burk plots), and the mean values were used to calculate Vmax and Km. Inhibition data from the experiments that were conducted using multiple compound concentrations were represented by Dixon plots, and inhibition constant (Ki) values were calculated using non-linear regression according to the following equation: v = (VmaxS)/(Km(1 + I/Ki) + S), where I is the concentration of the compound, Ki is the inhibition constant, S is the concentration of the substrate and Km is the substrate concentration at half the maximum velocity (Vmax) of the reaction. The mechanism of the inhibition was inspected using the Lineweaver–Burk plots and the enzyme inhibition models. The data comparison was performed using the Student’s t-test and performed using IBM SPSS statistics 20 (SPSS Inc., Chicago, IL).

[5] = biological target: CYP2D6 (Homo sapiens, UniProt P10635); assay: CYP2D6 inhibition in human liver microsomes (dextromethorphan O-demethylation); format: in vitro ADME; conditions: 100 μM bergenin, pooled HLMs
Sequence of CYP2D6 (P10635 whole entry): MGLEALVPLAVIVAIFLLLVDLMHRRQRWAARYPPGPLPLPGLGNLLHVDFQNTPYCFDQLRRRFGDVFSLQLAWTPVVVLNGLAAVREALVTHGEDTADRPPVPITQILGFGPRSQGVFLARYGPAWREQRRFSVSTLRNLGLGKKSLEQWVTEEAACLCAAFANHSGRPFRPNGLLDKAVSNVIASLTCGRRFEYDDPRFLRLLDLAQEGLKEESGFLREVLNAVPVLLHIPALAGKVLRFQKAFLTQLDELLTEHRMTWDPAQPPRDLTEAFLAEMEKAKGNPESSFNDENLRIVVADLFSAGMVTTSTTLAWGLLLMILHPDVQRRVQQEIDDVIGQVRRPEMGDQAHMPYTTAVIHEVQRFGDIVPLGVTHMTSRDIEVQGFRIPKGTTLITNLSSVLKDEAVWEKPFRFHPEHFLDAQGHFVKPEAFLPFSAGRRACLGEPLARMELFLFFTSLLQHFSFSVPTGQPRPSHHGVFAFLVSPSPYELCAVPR
Experimental: as §1, §2

[6] = biological target: T4, CYP2C9 (Homo sapiens, UniProt P11712); assay: CYP2C9 inhibition in human liver microsomes (diclofenac 4′-hydroxylation); format: in vitro ADME; conditions: pooled HLMs
T4 sequence (P11712 whole entry): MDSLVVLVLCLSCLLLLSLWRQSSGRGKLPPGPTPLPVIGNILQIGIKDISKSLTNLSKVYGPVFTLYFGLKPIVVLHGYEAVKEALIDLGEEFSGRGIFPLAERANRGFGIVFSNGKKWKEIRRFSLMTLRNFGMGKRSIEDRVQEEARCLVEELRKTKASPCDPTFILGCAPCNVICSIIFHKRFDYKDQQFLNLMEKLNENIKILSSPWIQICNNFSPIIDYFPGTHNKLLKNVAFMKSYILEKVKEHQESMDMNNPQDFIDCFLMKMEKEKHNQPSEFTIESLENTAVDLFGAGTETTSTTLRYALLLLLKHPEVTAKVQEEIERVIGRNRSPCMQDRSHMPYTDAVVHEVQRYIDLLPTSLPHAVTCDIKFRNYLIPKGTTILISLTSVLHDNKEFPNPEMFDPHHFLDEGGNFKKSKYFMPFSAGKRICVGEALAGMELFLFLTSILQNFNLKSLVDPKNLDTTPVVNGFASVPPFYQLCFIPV
Experimental: as §1, §2, §3

[7] = biological target: CYP2C19 (Homo sapiens, UniProt P33261); assay: CYP2C19 inhibition in human liver microsomes (S-mephenytoin 4-hydroxylation); format: in vitro ADME; conditions: 100 μM bergenin, pooled HLMs
Sequence of CYP2C19 (P33261 whole entry): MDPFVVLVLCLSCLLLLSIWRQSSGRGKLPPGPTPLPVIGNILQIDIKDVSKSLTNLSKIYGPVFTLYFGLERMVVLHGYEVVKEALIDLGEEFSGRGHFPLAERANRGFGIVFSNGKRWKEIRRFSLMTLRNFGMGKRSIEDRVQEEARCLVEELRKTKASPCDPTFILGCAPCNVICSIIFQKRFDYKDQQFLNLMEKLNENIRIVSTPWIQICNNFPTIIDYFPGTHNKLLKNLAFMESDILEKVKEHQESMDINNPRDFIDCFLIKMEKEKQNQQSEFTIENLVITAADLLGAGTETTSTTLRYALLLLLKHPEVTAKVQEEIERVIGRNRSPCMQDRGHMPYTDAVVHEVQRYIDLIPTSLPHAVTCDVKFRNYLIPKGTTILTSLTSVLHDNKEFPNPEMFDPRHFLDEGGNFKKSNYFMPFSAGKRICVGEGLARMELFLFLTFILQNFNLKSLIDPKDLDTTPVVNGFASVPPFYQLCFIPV
Experimental: as §1, §2

[8] = biological target: T5, CYP2C8 (Homo sapiens, UniProt P10632); assay: CYP2C8 inhibition in human liver microsomes (paclitaxel 6α-hydroxylation); format: in vitro ADME; conditions: 100 μM bergenin, pooled HLMs
T5 construct: from tissue; host or cells: pooled human liver microsomes
T5 sequence (P10632 1-490): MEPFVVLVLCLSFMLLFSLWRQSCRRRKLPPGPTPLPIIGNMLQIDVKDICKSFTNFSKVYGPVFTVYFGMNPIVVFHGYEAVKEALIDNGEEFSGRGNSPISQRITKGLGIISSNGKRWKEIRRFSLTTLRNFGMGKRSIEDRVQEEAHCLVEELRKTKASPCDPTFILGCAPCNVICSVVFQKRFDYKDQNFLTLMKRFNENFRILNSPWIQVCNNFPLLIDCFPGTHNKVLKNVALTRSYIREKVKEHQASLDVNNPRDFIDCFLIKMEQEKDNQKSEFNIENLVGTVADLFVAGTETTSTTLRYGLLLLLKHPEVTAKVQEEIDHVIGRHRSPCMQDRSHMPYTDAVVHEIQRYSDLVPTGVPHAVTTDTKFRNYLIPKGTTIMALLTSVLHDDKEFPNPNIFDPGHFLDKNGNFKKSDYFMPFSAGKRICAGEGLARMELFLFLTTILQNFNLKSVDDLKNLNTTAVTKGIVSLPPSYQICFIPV
Experimental: as §1, §2

[9] = biological target: T1, CYP3A4; assay: Time-dependent inhibition study in HLMs, CYP3A4; format: in vitro ADME
Experimental: (§4) After incubation, an aliquot (20 μL) was transferred to another incubation tube (final volume 200 μL) containing an NADPH-generating system and probe substrates whose final concentrations were approximate to Km. Then, further incubations were performed to measure the residual activity. After being incubated for different time (30 min for CYP2E1 and CYP2C9, 10 min for CYP3A4), the reactions were terminated by adding a 100 μL acetonitrile internal standard mix and then placed on ice; the corresponding metabolites were determined by HPLC.
Figure 7. […] The initial rate constant of inactivation of CYP3A4 by each concentration (Kobs) was determined through linear regression analysis of the natural logarithm of the percentage of remaining activity versus pre-incubation time (A).

[10] = biological target: T3, CYP2E1; assay: Time-dependent inhibition study in HLMs, CYP2E1; format: in vitro ADME; conditions: bergenin 20 μM, pre-incubation with HLM and NADPH for 30 min
Experimental: as §4

[11] = biological target: T4, CYP2C9; assay: Time-dependent inhibition study in HLMs, CYP2C9; format: in vitro ADME; conditions: bergenin 20 μM, pre-incubation with HLM and NADPH for 30 min
Experimental: as §4

[12] = parameters: method as in Pan et al. [2016]; conditions: rats, oral dose 100 mg/kg, ref Pan et al. [2016], cited from earlier work
[13] = Lineweaver–Burk plots, pooled HLMs

Sequence of CYP1A2 (P05177 whole entry): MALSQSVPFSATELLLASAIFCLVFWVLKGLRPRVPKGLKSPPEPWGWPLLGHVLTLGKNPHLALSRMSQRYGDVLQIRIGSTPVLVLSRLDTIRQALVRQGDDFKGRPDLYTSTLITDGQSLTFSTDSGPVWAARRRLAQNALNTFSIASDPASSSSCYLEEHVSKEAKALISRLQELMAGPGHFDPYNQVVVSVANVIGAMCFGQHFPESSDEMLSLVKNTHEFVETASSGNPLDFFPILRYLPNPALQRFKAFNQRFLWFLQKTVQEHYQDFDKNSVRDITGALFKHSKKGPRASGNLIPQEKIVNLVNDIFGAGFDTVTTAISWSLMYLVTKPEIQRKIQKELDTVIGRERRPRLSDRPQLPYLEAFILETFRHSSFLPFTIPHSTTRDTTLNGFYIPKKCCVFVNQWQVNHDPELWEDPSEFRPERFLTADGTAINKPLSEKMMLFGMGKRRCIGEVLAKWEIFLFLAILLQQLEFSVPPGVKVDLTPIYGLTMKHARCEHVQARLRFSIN

In the case of `COc1c(O)cc2c(c1O)[C@@H]1O[C@H](CO)[C@@H](O)[C@H](O)[C@H]1OC2=O` [bergenin, Bergenin], the “Inhibition of CYP1A2 activity” value [1] is reported as “did not inhibit”, the “Inhibition mode CYP3A4” value [2, 13] is reported as “non-competitive” and the activity at 100 μM ([2]; human, pooled human liver microsomes, pH 7.4, probe testosterone (6β-hydroxylation), read-out: CYP3A4 activity, % of control activity) is reported as 11%. For the same compound, the “Inhibition of CYP2A6 activity” value [3] was “did not inhibit”, the “Inhibition mode CYP2E1” value [4, 13] was “competitive” and the activity at 100 μM ([4]; human, pooled human liver microsomes, pH 7.4, probe chlorzoxazone (6-hydroxylation), read-out: CYP2E1 activity, % of control activity) was 12.2%. For the same compound, the IC50 ([4]; pooled HLMs, chlorzoxazone 6-hydroxylation) was 22.8 µM, the Ki ([4]; pooled HLMs, secondary Lineweaver–Burk plot, chlorzoxazone 25–200 μM) was 11.4 µM and the “Inhibition of CYP2D6 activity” value [5] was “did not inhibit”. For the same compound, the “Inhibition mode CYP2C9” value ([6]; Lineweaver–Burk plots) was “competitive”, the IC50 ([6]; diclofenac 4′-hydroxylation) was 15.1 µM and the Ki ([6]; secondary Lineweaver–Burk plot, diclofenac 2–20 μM) was 8.89 µM. The “Inhibition of CYP2C19 activity” value [7] was “did not inhibit”, the “Inhibition of CYP2C8 activity” value [8] was “did not inhibit” and the “Time-dependent inhibition, activity of CYP3A4” value ([9]; bergenin 20 μM, pre-incubation with HLM and NADPH for 30 min) was “decreased with the incubation time”. For the same compound, the “CYP3A4 inactivated each minute” value ([9]; saturating concentration of bergenin incubated with HLM, implied by Kinact) was “approximately 2.5%”, the “Time-dependent inhibition, activity of CYP2E1” value [10] was “not affected” and the “Time-dependent inhibition, activity of CYP2C9” value [11] was “not affected”. For the same compound, the “Plasma Cmax” value [12] was “less than 300 ng/mL” and the Cmax ([12]; read-out: Plasma Cmax) was under 900 nM.
